What was measured:
Type in all cases: in vivo
Bartlett pears = assay: Liquid 1-MCP drench treatment on pears; design: key to Firmness, statistical significance between control and treated bins of pears by layers / Ethylene Content, statistical significance between control and treated bins of pears by layers / Skin Color, statistical significance between control and treated bins of pears by layers: Lx: layers that contained fruit that were not statistically significantly different from control; All: fruit tested in all layers was statistically significantly different from control; None: no layers were identified that had statistical significance from control
Method: Bins of freshly harvested Bartlett pears were sprayed with 0 gal (control), 1.0 gal, 2.0 gal, or 3.0 gal of Harvista AFxRD038 formulation. The AFxRD038 liquid 1-methylcyclopropene (1-MCP) formulation was made of 3 gal of water, 36 g of AFxRD038, 113 ml of HiSupreme Spray Oil, and 5.63 ml of Silwett L-77 surfactant.
A CO2 backpack sprayer was used to apply the different volumes of 1-MCP treatment within an initial time period of a few days (e.g., about 2-3 days). The formulation was applied to bins containing a total of approximately 900 lbs of pears. Each bin comprised 7-9 layers depending on the size of the pears, with layer 1 being the top layer and layers 7-9 being the bottom layer. A control bin having 9 layers of pears was not sprayed with 1-MCP treatment.
The bins of pears were allowed to air dry outside, and were then stored in regular cold air (i.e., about 4° C.) for a second time period of about two days. The fruit was then moved to a controlled atmosphere storage having a temperature of 31° F. for a third time period of about 45 days. Upon removal of the fruit from storage in the bins, the fruit was then placed in a warm room having a temperature of about 68° F. for a fourth time period of about six days.
On the sixth day of the fourth time period of warm room exposure, each individual bin of fruit was sampled in a uniform fashion. Uniform sampling was performed by removing about 250 pears from the top of each bin, layer-by-layer. Each layer of about 250 fruit was stored in plastic bins for further analysis during a fifth time period. Day 6 evaluation occurred on the same day the layers were removed from the bin. Four days later (Day 10), another series of fruit layers were analyzed. Four more days later (Day 14), the last set of fruit from the bins were analyzed.
On days 6, 10, and 14, a subset of fruit from each layer of each bin was analyzed for firmness, ethylene content, and fruit skin color. Quality measurements were taken on an individual layer of fruit within each treated bin to establish the effectiveness and consistency of the treatments from top to bottom of each fruit bin (see FIGS. 3-5). For example, firmness of the pears was measured by peeling the pears, and measuring the middle pulp with an 8 mm tip.

Golden Delicious apples = assay: Comparative analysis of 1-MCP treatments of apples applied with the wand device; settings: for Fruit firmness of apples relative to SmartFresh and control apples: 65 days at about 1° C. + 7 days room temperature
Method: This experiment was conducted to test the effect of different application methods of 1-MCP treatment (i.e., Harvista AFx701) on Golden Delicious apples in bins. Apples were treated with two different formulations of the 1-MCP treatment, including a formulation comprising 1) 20 grams of 1-MCP and 2 liters of water, which was applied in 10 seconds and 2) 60 grams of 1-MCP and 6 liters of water, which was applied in 30 seconds. The 1-MCP treatment formulations were prepared and applied to apples using the wand device, and compared to apples that had been treated with SmartFresh or no 1-MCP at all (control).
Apples were stored for 65 days in cold air at about 1° C. temperature, prior to being stressed for 7 days at room temperature. Replicates of 25 fruit were sampled from each layer of each fruit bin to analyze fruit firmness (in pounds, lbs) and internal ethylene concentration (ppm). Data were analyzed on a whole bin basis using all replicates from each layer.

Red Delicious apples = assay: Liquid 1-MCP drench treatment on apples; design: key to Ethylene Content, statistical significance between control and treated bins of apples by layers: Lx: layers that contained fruit that were not statistically significantly different from control; All: fruit tested in all layers was statistically significantly different from control; None: no layers were identified that had statistical significance from control; settings: for Firmness of apples compared with unsprayed control apples: most apples
Method: This experiment was conducted to test the effect of 1-MCP treatment on Red Delicious apples. This experiment was performed exactly as detailed above in Example 1 for Bartlett pears, but with a few noted exceptions described here. Specifically, Red Delicious apples were treated with a 1-MCP treatment comprising 31 g of AFxRD038. The apples were treated with 0.5 gal, 1.0 gal, and 2.0 gal volumes of the 1-MCP treatment, which were applied to bins of apples comprised in 9-10 layers depending on the size of the apples. A control bin having 10 layers of apples was not sprayed with 1-MCP treatment. The apples were stored for a third time period at room temperature for 33 days. The apples were analyzed for firmness and ethylene content at warm day 7 and 14 of the fifth time period.

Cantaloupe melons [1] = assay: Comparative liquid 1-MCP spray treatment on melons, stored about 9 days
Method: This experiment was conducted to test the effect of 1-MCP spray treatment on Cantaloupe melons as compared to SmartFresh treatment. This experiment was performed exactly as detailed above in Example 1 for Bartlett pears, but with a few noted exceptions described here. The bins of melons were allowed to air dry outside, and were then stored in regular cold air (i.e., about 36° F.) for a second time period of about 9 days. The melons were then moved to a regular atmosphere storage having a temperature of about 70° F. for a third time period of about 2, 4, or 6 more days. Upon removal of the fruit from storage in the bins, the fruit were then analyzed for firmness. Firmness of the melons was measured by cutting the melons in half, and measuring the middle pulp with an 8 mm tip.

Cantaloupe melons [2] = assay: Comparative liquid 1-MCP spray treatment on melons, stored about 15 days
Method: This experiment was conducted to test the effect of 1-MCP spray treatment on Cantaloupe melons as compared to SmartFresh treatment. Bins containing 9 kilograms each of freshly harvested Cantaloupe melons were sprayed four times using a dual-liquid sprayer comprising the Harvista AFx701 formulation (see FIG. 10). Each spray of the AFx701 liquid 1-methylcyclopropene (1-MCP) formulation comprised 83.5 mg of AFx701 and 608 mg of water. Thus, a total amount of 1.67 mg of 1-MCP active ingredient and 2.43 g of water was applied to each bin of melons, which equates to 0.185 mg of 1-MCP per kg of melons. The 1-MCP treatment formulations were prepared and applied to […] using a sprayer, and compared to apples that had been treated with SmartFresh or no 1-MCP at all (control).
The bins of melons were allowed to air dry outside, and were then stored in regular cold air (i.e., about 36° F.) for a second time period of about 15 days. The melons were then moved to a regular atmosphere storage having a temperature of about 70° F. for a third time period of about 2, 4, or 6 more days. Upon removal of the fruit from storage in the bins, the fruit were then analyzed for firmness. Firmness of the melons was measured by cutting the melons in half, and measuring the middle pulp with an 8 mm tip.
Day 15 evaluation occurred on the same day the fruit were removed from storage in the bin. Two days later (Day 15+2), another series of fruit were analyzed. Two more days later (Day 15+4), an additional set of fruit were removed and analyzed. Finally, the last set of fruit from the bins was analyzed two days later (Day 15+6). Quality measurements were taken on individual melons randomly selected from different treated bins and different positions within each treated bin (e.g., the edge and/or the center of the bin) to establish the effectiveness and consistency of the treatments (see FIG. 11).

[3] = Treatment 2: 60 grams of 1-MCP and 6 liters of water, 30 seconds, wand device
[4] = spray, 9 days cold storage, all days

`CC1=CC1` [1-MCP, 1-Methylcyclopropene] was tested, and the “Firmness of pears compared with unsprayed control fruit” value (Bartlett pears; 1 gal, 2 gal or 3 gal, layers 1-9, warm days 6, 10 and 14) was “significantly better firmness”, the “Firmness, statistical significance between control and treated bins of pears by layers” value (Bartlett pears; WRD 6, 1 Gal) was “All” and the “Skin Color, statistical significance between control and treated bins of pears by layers” value (Bartlett pears; WRD 6, 1 Gal) was “All”. For the same molecule, the “Firmness, statistical significance between control and treated bins of pears by layers” value (Bartlett pears; WRD 6, 2 Gal) was “All”, the “Skin Color, statistical significance between control and treated bins of pears by layers” value (Bartlett pears; WRD 6, 2 Gal) was “All” and the “Firmness, statistical significance between control and treated bins of pears by layers” value (Bartlett pears; WRD 6, 3 Gal) was “All”. For the same molecule, the “Skin Color, statistical significance between control and treated bins of pears by layers” value (Bartlett pears; WRD 6, 3 Gal) was “All”, the “Ethylene Content, statistical significance between control and treated bins of pears by layers” value (Bartlett pears; WRD 10, 1 Gal) was “All” and the “Firmness, statistical significance between control and treated bins of pears by layers” value (Bartlett pears; WRD 10, 1 Gal) was “All”. For the same molecule, the “Skin Color, statistical significance between control and treated bins of pears by layers” value (Bartlett pears; WRD 10, 1 Gal) was “All”, the “Firmness, statistical significance between control and treated bins of pears by layers” value (Bartlett pears; WRD 10, 2 Gal) was “All” and the “Skin Color, statistical significance between control and treated bins of pears by layers” value (Bartlett pears; WRD 10, 2 Gal) was “All”. For the same molecule, the “Firmness, statistical significance between control and treated bins of pears by layers” value (Bartlett pears; WRD 10, 3 Gal) was “All”, the “Skin Color, statistical significance between control and treated bins of pears by layers” value (Bartlett pears; WRD 10, 3 Gal) was “All” and the “Firmness, statistical significance between control and treated bins of pears by layers” value (Bartlett pears; WRD 14, 1 Gal) was “All”. For the same molecule, the “Skin Color, statistical significance between control and treated bins of pears by layers” value (Bartlett pears; WRD 14, 1 Gal) was “None”, the “Firmness, statistical significance between control and treated bins of pears by layers” value (Bartlett pears; WRD 14, 2 Gal) was “All” and the “Skin Color, statistical significance between control and treated bins of pears by layers” value (Bartlett pears; WRD 14, 2 Gal) was “None”. The “Firmness, statistical significance between control and treated bins of pears by layers” value (Bartlett pears; WRD 14, 3 Gal) was “All”, the “Skin Color, statistical significance between control and treated bins of pears by layers” value (Bartlett pears; WRD 14, 3 Gal) was “None” and the “Control and/or inhibition of fruit ripening in pears” value (Bartlett pears; as little as 1 gal of 1-MCP treatment) was “effective to control and/or inhibit fruit ripening in pears”. For the same molecule, the “Fruit color of pears compared with unsprayed control fruit” value (Bartlett pears; layers 1-9, days 6 and 10) was “significantly less fruit color”, the “Ethylene concentration of pears compared with unsprayed control fruit” value (Bartlett pears; layers 1-9, warm days 6, 10 and 14) was “significantly lower ethylene concentrations” and the “Fruit skin color of pears compared with control” value (Bartlett pears; warm day 14) was “none of the layers showed a significant difference”. For the same molecule, the “Control and/or inhibition of fruit ripening in apples” value (Golden Delicious apples; 1-MCP treatment applied with a wand device) was “effective to control and/or inhibit fruit ripening in apples”, the “Fruit firmness of apples relative to SmartFresh and control apples” value (Golden Delicious apples; Treatment 1: 20 grams of 1-MCP and 2 liters of water, 10 seconds, wand device) was “highest” and the “Internal ethylene concentration of apples compared with Treatment 1 or control” value (Golden Delicious apples; [3]) was “significantly less ethylene concentration”. For the same molecule, the “Fruit firmness of apples relative to SmartFresh and control apples” value (Golden Delicious apples; [3]) was “highest”, the “Ethylene Content, statistical significance between control and treated bins of apples by layers” value (Red Delicious apples; WRD 7, 0.5 Gal) was “All” and the “Ethylene Content, statistical significance between control and treated bins of apples by layers” value (Red Delicious apples; WRD 7, 1 Gal) was “All”. The “Ethylene Content, statistical significance between control and treated bins of apples by layers” value (Red Delicious apples; WRD 7, 2 Gal) was “All”, the “Ethylene Content, statistical significance between control and treated bins of apples by layers” value (Red Delicious apples; WRD 14, 2 Gal) was “All” and the “Control and/or inhibition of fruit ripening in apples” value (Red Delicious apples; as little as 0.5 gal of 1-MCP treatment) was “effective to control and/or inhibit fruit ripening in apples”. For the same molecule, the “Firmness of apples compared with unsprayed control apples” value (Red Delicious apples; day 14, except layers 2, 5, 8 and 10) was “significantly better firmness”, the “Ethylene concentration of apples compared with unsprayed control apples” value (Red Delicious apples; warm day 7, layers 1-10) was “significantly lower ethylene concentrations” and the “Firmness of apples compared with unsprayed control apples” value (Red Delicious apples; warm day 7, except layers 5, 8 and 9) was “significantly better firmness”. For the same molecule, the “Firmness of melons compared with SmartFresh-treated melons” value (Cantaloupe melons [1]; Day 9+4) was “even higher”, the “Control and/or inhibition of fruit ripening in melons” value (Cantaloupe melons [1]; spray, 9 days cold storage) was “effective to control and/or inhibit fruit ripening in melons” and the “Firmness of melons compared with SmartFresh-treated fruit” value (Cantaloupe melons [1]; [4]) was “statistically the same as SmartFresh treated fruit”. The “Firmness of melons compared with control” value (Cantaloupe melons [1]; [4]) was “significant differences from the control”, the “Control and/or inhibition of fruit ripening in melons” value (Cantaloupe melons [2]; 15 days cold storage) was “effective to control and/or inhibit fruit ripening in melons” and the “Firmness of melons compared with control fruit” value (Cantaloupe melons [2]; Day 15, 15+2, 15+4, 15+6 (all days)) was “significant differences from the control fruit”. For the same molecule, the “Firmness of melons compared with SmartFresh-treated melons” value (Cantaloupe melons [2]; all days) was “relatively comparable to melons treated with SmartFresh”.

Reference: US20170251662A1, “ALTERNATIVE DEVICE AND METHODS FOR APPLICATION OF 1-METHYLCYCLOPROPENE TO FRUIT” (AGROFRESH INC., priority 2016, published 2017)
